Activity and MIC data for four compounds are collected here from ChEMBL document CHEMBL1152316, “Caryophyllenes from a fungal culture of Chrysosporium pilosum” (2009).

SMILES strings stand for the structures. ≈ marks a conversion by molar mass, not a printed value. Calls of active or inactive are those of the source. The rule behind the calls is not given here.

Assay [1] has as its system Saccharomyces cerevisiae. As to the kind of experiment: Antifungal activity against Saccharomyces cerevisiae PM503 assessed as zone of inhibition after 48 hrs. The format is functional, organism-based.
Assay [2] has as its system Saccharomyces cerevisiae. As to the kind of experiment: Antifungal activity against Saccharomyces cerevisiae PM503 after 48 hrs. The class given is functional. As to conditions: PM503, 48 h.

Turning to `C/C1=C/C(=O)[C@@H](O)[C@@]2(CO2)[C@@H]2CC(C)(C)[C@H]2CC1`, in assay [1], the outcome was inactive.
The term MIC denotes the lowest concentration found to suppress growth. A low value points to inhibition by little substance. In the case of `C/C1=C/C(=O)[C@@H](O)[C@@H](CO)[C@@H]2CC(C)(C)[C@H]2CC1`, the MIC in assay [2] stood at 60 µg/mL (≈ 238 µM). Moreover, the result in assay [1] was inactive.
`C/C1=C/[C@H](O)C(=O)[C@@H](CO)[C@@H]2CC(C)(C)[C@H]2CC1`: in assay [1], the result was inactive.
Take `C=C1CC[C@H]2[C@@H](CC2(C)C)[C@H]2CO[C@@](O)(C1)C2=O`: the result in assay [1] was inactive.
